Values quoted from earlier work in US20230149402A1, “SOLID PHARMACEUTICAL PREPARATION, PREPARATION METHOD THEREFOR AND USE THEREOF” (SHANGHAI HAIYAN PHARMACEUTICAL TECHNOLOGY CO., LTD, priority 2020, published 2023).

Key:
hOX2R = target: T1, hOX2R (Homo sapiens, UniProt O43614); details: FLIPR, read-out: IC50, inhibitory effect on OX2 GPCR receptor
T1 sequence (O43614 1-444): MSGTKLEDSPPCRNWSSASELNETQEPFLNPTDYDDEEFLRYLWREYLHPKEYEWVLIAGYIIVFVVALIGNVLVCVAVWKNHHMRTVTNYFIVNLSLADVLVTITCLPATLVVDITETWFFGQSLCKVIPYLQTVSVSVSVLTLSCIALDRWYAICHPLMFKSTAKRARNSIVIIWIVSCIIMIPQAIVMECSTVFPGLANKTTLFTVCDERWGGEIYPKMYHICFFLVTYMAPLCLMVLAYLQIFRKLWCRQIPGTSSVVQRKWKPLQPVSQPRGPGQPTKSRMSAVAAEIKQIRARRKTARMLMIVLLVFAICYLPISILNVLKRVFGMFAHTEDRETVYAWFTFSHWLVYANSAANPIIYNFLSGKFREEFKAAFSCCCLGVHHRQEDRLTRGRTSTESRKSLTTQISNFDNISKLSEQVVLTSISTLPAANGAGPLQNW

hOX1R = target: T2, hOX1R (Homo sapiens, UniProt O43613); details: FLIPR, read-out: IC50, inhibitory effect on OX1 GPCR receptor
T2 sequence (O43613 1-425): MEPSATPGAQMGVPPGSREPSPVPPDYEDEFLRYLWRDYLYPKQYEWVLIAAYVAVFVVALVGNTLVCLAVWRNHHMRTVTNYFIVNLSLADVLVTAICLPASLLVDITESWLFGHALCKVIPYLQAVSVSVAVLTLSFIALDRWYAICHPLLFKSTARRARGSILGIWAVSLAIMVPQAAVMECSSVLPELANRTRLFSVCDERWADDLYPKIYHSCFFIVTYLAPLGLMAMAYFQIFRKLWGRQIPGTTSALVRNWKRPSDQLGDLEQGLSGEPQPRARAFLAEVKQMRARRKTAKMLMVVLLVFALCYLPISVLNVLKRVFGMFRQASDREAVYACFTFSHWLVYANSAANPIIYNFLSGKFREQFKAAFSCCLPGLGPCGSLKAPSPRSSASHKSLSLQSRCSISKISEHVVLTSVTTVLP

- IC50 (hOX2R): 36 nM
- IC50 (hOX1R): 20 nM
SMILES: Cc1ccc(-c2ncccn2)c(C(=O)N2[C@H]3CC[C@@H](COc4ccc(F)cn4)[C@@H]2CC3)c1 [compound of formula (II), ((1S,2R,5S)-2-(((5-fluoropyridin-2-yl)oxy)methyl)-8-azabicyclo[3.2.1]octan-8-yl)(5-methyl-2-(pyrimidin-2-yl)phenyl)methanone]
